This note sets out measurements from ChEMBL document CHEMBL5230110, “FabI (enoyl acyl carrier protein reductase) - A potential broad spectrum therapeutic target and its inhibitors” (Eur J Med Chem, 2020).

By IC50 is commonly meant the concentration that gives 50% inhibition. Broadly, the MIC is the lowest concentration found to suppress growth. What is called MBC is the lowest tested concentration that kills the bacteria rather than only halting them. The EC50 is the midpoint of the concentration-response curve. For orientation: CC50 means the concentration at which the toxic effect on the cells reaches its halfway point. In general, ED50 refers to the dose at which the effect has come halfway, by size or by number of responders.

For data set [1], the target named is T1, Enoyl-[acyl-carrier-protein] reductase [NADPH] FabI (Staphylococcus aureus, UniProt Q6GI75).
T1 sequence (Q6GI75 whole entry): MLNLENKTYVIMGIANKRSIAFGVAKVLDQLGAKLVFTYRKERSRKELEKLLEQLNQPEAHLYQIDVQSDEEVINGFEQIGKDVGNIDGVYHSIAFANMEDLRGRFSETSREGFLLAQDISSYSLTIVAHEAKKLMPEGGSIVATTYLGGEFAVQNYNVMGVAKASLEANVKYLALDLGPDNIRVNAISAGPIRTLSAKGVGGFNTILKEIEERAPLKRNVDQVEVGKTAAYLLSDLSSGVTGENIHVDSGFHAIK
Description: Inhibition of Staphylococcus aureus FabI assessed as inhibition at 10 uM.

Data set [2] relates to Staphylococcus aureus. Description: Antibacterial activity against Staphylococcus aureus assessed as inhibition of bacterial growth measured after 24 hrs. The format is functional.
Data set [3] in a line: Inhibition of Bacillus anthracis enoyl ACP reductase assessed as inhibition of bacterial growth.
Another data set has as its system Bacillus anthracis. Kind of data set: Antibacterial activity against Bacillus anthracis assessed as reduction in bacterial growth measured after 24 hrs by broth microdilution method. It is filed as functional. For orientation: Dilution methods test growth across graded concentrations, often in twofold steps.
Data set [4] has as its system Staphylococcus aureus. Description: Antibacterial activity against methicillin resistant Staphylococcus aureus assessed as reduction in bacterial growth incubated for 12 hrs by microdilution method. It is filed as functional.
In data set [5] the test system is Staphylococcus aureus. Kind of data set: Bactericidal activity against methicillin-resistant Staphylococcus aureus measured after 24 hrs by sub-culturing. It is filed as functional.
Data set [6] is described as follows: Cytotoxicity against mouse MH-S cells. It is filed as functional, cell-based.
Another data set relates to HeLa. Kind of data set: Cytotoxicity against human HeLa cells assessed as inhibition of cell growth incubated for 48 hrs by CCK8 assay. It is filed as functional, cell-based. (Tetrazolium dyes change colour on reduction, which living cells bring about.)
For data set [7], the system named is Staphylococcus aureus. Description: Bactericidal activity against methicillin-sensitive Staphylococcus aureus measured after 24 hrs by sub-culturing. The format is functional.
The test system of data set [8] is Mycobacterium tuberculosis. Description: Antibacterial activity against Mycobacterium tuberculosis assessed as inhibition of […]. It is filed as functional.
Another data set concerns Acinetobacter baumannii. Description: Antibacterial activity against Acinetobacter baumannii W41979 assessed as inhibition of bacterial growth measured after 24 hrs by micro-dilution broth method. It is filed as functional.
Another data set deals with Enterobacter cloacae. Description: Antibacterial activity against Enterobacter cloacae assessed as inhibition of bacterial growth measured after 24 hrs by micro-dilution broth method. The format is functional.
A further data set has as its system Pseudomonas aeruginosa. Description: Antibacterial activity against Pseudomonas aeruginosa assessed as bacterial growth inhibition measured after 24 hrs by micr-dilution broth method. The format is functional.
The test system of another data set is Klebsiella pneumoniae. Kind of data set: Antibacterial activity against Klebsiella pneumoniae BAA-1705 assessed as inhibition of bacterial growth measured after 24 hrs by micro-dilution broth method. It is filed as functional.
Data set [9] relates to Staphylococcus aureus. Kind of data set: Antibacterial activity against Staphylococcus aureus assessed as inhibition of bacterial growth measured after 24 hrs by micro-dilution broth method. It is filed as functional.
The test system of data set [10] is Escherichia coli. Kind of data set: Antibacterial activity against Escherichia coli assessed as inhibition of bacterial growth measured after 24 hrs by micro-dilution broth method. The format is functional.
Data set [11] deals with T2, Enoyl-[acyl-carrier-protein] reductase [NADH] FabI (Haemophilus influenzae (strain ATCC 51907 / DSM 11121 / KW20 / Rd), UniProt P44432).
T2 sequence (P44432 whole entry): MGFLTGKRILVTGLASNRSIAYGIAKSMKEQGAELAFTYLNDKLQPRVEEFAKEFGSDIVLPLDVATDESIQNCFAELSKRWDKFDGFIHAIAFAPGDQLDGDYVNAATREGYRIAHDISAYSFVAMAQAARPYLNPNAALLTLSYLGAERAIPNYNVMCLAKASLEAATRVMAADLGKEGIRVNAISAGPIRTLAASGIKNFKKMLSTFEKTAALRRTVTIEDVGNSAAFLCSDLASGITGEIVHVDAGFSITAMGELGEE
Kind of data set: Inhibition of Haemophilus influenzae ATCC 51907 FabI assessed as by measuring NADH consumption rate.

In data set [12] the target is T1, Enoyl-[acyl-carrier-protein] reductase [NADPH] FabI. Kind of data set: Inhibition of Staphylococcus aureus FabI in the presence of NADH using crotonyl CoA as substrate by measuring NADH consumption rate.
Data set [13] concerns Mycobacterium tuberculosis. Kind of data set: Antimycobacterial activity against Mycobacterium tuberculosis ATCC 25618 extracellular forms assessed as inhibition of microbial growth. The format is functional.
Data set [14] deals with Staphylococcus aureus. Description: Antibacterial activity against Methicillin-resistant Staphylococcus aureus 5912 assessed as reduction in microbial growth inhibition. It is filed as functional.
In data set [15] the test system is Staphylococcus aureus. Description: Antibacterial activity against Staphylococcus aureus ATCC 43300 assessed as reduction in microbial growth inhibition. The format is functional.
In data set [16] the test system is Escherichia coli. Description: Antibacterial activity against Escherichia coli ATCC 35218 assessed as reduction in microbial growth inhibition. The format is functional.
The test system of data set [17] is Staphylococcus aureus. Kind of data set: Antibacterial activity against Staphylococcus aureus ATCC 29213 assessed as reduction in microbial growth inhibition. It is filed as functional.
Data set [18] in a line: Cytotoxicity against African green monkey Vero cells assessed as reduction in cell viability measured after 72 hrs by coulter counter method. The format is toxicity, cell-based. Particulars: chlorocebus sabaeus.
Data set [19] has as its system Staphylococcus aureus. Description: Antibacterial activity against Staphylococcus aureus ATCC 43300 assessed as reduction in microbial growth inhibition in presence of carbenicillin. The format is functional.
Data set [20] deals with Staphylococcus aureus. Description: Antibacterial activity against […] Staphylococcus aureus ATCC 29213 assessed as reduction in microbial growth inhibition. It is filed as functional.
Data set [21] relates to Staphylococcus aureus. Kind of data set: Antibacterial activity against Methicillin-resistant Staphylococcus aureus 5749 assessed as reduction in microbial growth inhibition. The format is functional.
Data set [22] deals with Staphylococcus aureus. Description: Antibacterial activity against Staphylococcus aureus ATCC 43300 assessed as reduction in microbial growth inhibition in presence of ceftazidime. The format is functional.
The test system of data set [23] is Staphylococcus aureus. Kind of data set: Antibacterial activity against Staphylococcus aureus ATCC 43300 assessed as reduction in microbial growth inhibition in presence of chloramphenicol. The format is functional.
Data set [24] concerns Staphylococcus epidermidis. Description: Antibacterial activity against Methicillin-resistant Staphylococcus epidermidis ATCC 35984 assessed as reduction in bacterial growth. It is filed as functional.
Data set [25] concerns Staphylococcus aureus. Kind of data set: In vivo antibacterial activity against methicillin-resistant Staphylococcus aureus infected in murine assessed as reduction in bacterial burden. It is filed as functional.

Converted amounts (≈) assume the structure as drawn. A value given as a limit tells only on which side of the number the result lay.

For `CC(C)=CCc1c(O)ccc(C(=O)[C@H]2[C@@H](c3c(O)cc(-c4cc5ccc(O)cc5o4)cc3O)C=C(C)C[C@@H]2c2ccc(O)cc2O)c1O` [CHALCOMORACIN], the IC50 in [1] was found to be 5500 nM. The MIC in the data set with Staphylococcus aureus [2] worked out at 4 µg/mL (≈ 6.17 µM).

For `CCCc1ccc(Oc2ccc([N+](=O)[O-])cc2Cl)c(O)c1`, in [3], the IC50 is 500 nM. In addition, the MIC was 1.9 µg/mL (≈ 6.17 µM) in the data set on Bacillus anthracis and 0.3 µg/mL (≈ 0.975 µM) in the data set on Staphylococcus aureus [4]. Moreover, the MBC turned out to be 1.2 µg/mL (≈ 3.9 µM) with Staphylococcus aureus [5] and 2.9 µg/mL (≈ 9.42 µM) in the data set on Staphylococcus aureus [7]. Moreover, the EC50 in data set [6] was found to be 22.6 µg/mL (≈ 73.4 µM); in the data set with HeLa, 41.1 µg/mL (≈ 134 µM).

Regarding `OB1c2ccccc2N=C(S)N1c1cccnc1`, the minimal inhibitory concentration (MIC) in [8] was determined as 8 µg/mL (≈ 31.4 µM).

For `Cc1cc(=O)n(C)c2c3c4c(cc12)c(C)cc(=O)n4C(CN)CO3` (stereo unspecified), the MIC in the data set with Acinetobacter baumannii is 2 µg/mL (≈ 6.15 µM); in the data set with Enterobacter cloacae, 0.5 µg/mL (≈ 1.54 µM); with Pseudomonas aeruginosa, greater than 16 µg/mL; in the data set with Klebsiella pneumoniae, 1 µg/mL (≈ 3.07 µM); in the data set on Staphylococcus aureus [9] it was 0.05 µg/mL (≈ 0.154 µM); in the data set with Escherichia coli [10], 0.5 µg/mL (≈ 1.54 µM).

Consider `Cc1c(CN(C)C(=O)/C=C/c2cnc3c(c2)CCC(=O)N3)c2ccccc2n1C`, for which the IC50 in [11] came to 390 nM; in data set [12], 130 nM.

Consider `CC1(C)CCC(Cc2cc(O)c(-c3ccccc3)c(=O)[nH]2)CC1`, for which the MIC in data set [13] was found to be 0.05 µM.

With `C[C@@H](Oc1cc(-c2cnn(C3CCNCC3)c2)cnc1N)c1c(Cl)ccc(F)c1Cl` [CRIZOTINIB], the minimal inhibitory concentration (MIC) stood at 15.6 µM with Staphylococcus aureus [14]; 7.03 µg/mL in the data set with Staphylococcus aureus [15]; 250 µM with Escherichia coli [16]; 125 µM in the data set with Staphylococcus aureus [17]; 2 µg/mL in the data set on Staphylococcus aureus [19]; 31.2 µM in the data set on Staphylococcus aureus [20]. For the same compound, the MIC in the data set with Staphylococcus aureus [21] was determined as 125 µM; with Staphylococcus aureus [22] it was 4 µg/mL; in the data set with Staphylococcus aureus [23] it was 2 µg/mL. The 50% cytotoxic concentration (CC50) at 72 h in data set [18] amounted to 4230 nM.

As for `Cc1c(C2CN(C(=O)/C=C/c3cnc4c(c3)CCC(=O)N4)C2)oc2ccccc12`, in data set [24], the MIC worked out at 0.5 µg/mL (≈ 1.29 µM). Further, the ED50 with Staphylococcus aureus [25] worked out at 0.9 mg/kg.
